Test results from US20240398805A1, “QUINAZOLINE DERIVED COMPOUNDS AS EGFR INHIBITORS AND THEIR USES THEREOF” (ACCUTAR BIOTECHNOLOGY INC., priority 2021, published 2024).

Columns and labels:
Assay type in all cases: cell-based
HCC827 cells = experiment: Cell growth inhibition (CellTiter-Glo, 3 days) in HCC827; details: Homo sapiens, 72 h, 3 days after administration
Method in brief: (§1)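 Growth inhibition was scored by CellTiter-Glo luminescence after 3-day compound exposure at various concentrations. Cells were plated at 5000/well the day before treatment: A431 in DMEM and HCC827 in RPMI, each with 10% FBS.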

[1] = test system: HCC827-SVD cells (human EGFR exon 20 insertion mutant D770_N771 insSVD); experiment: Cell growth inhibition (CellTiter-Glo, 3 days) in HCC827-SVD; details: 72 h, 3 days after administration
Method in brief: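 HCC827 cells carrying lentiviral codon-optimized EGFR D770_N771 insSVD, with endogenous EGFR knocked out by CRISPR (single clone), seeded at 5000 cells/well in RPMI with 10% FBS. Viability read by CellTiter-Glo luminescence.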

[2] = test system: HCC827-ASV cells (human EGFR exon 20 insertion mutant A769_D770insASV); experiment: Cell growth inhibition (CellTiter-Glo, 3 days) in HCC827-ASV; details: 72 h, 3 days after administration
Method in brief: (§2)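 HCC827 cells lentivirally transduced with codon-optimized ASV or YVMA insertion mutants were seeded at 5000 cells/well in RPMI with 10% FBS and incubated overnight. Compound was added at various concentrations from a 10× stock in medium, with 3 days' incubation. Viability read by CellTiter-Glo luminescence.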

[3] = test system: HCC827-YVMA cells (human ERBB2 exon20 insertion mutant A775_G776ins YVMA); experiment: Cell growth inhibition (CellTiter-Glo, 3 days) in HCC827-YVMA; details: 72 h, 3 days after administration
Method in brief: as §2

A431 cells = experiment: Cell growth inhibition (CellTiter-Glo, 3 days) in A431; details: Homo sapiens, A-431, 72 h, 3 days after administration
Method in brief: as §1

Structure (SMILES) | GI50 (HCC827 cells) [nM] | GI50 [1] [nM] | GI50 [2] [nM] | GI50 [3] [nM] | GI50 (A431 cells) [nM]
C=CC(=O)N1CCC(Nc2cc3c(Nc4ccc(Oc5ccnc(-c6ccccc6)c5)cc4F)ncnc3cc2OC)CC1 [Compound 233, 1-(4-((4-((2-fluoro-4-((2-phenylpyridin-4-yl)oxy)phenyl)amino)-7-methoxyquinazolin-6-yl)amino)piperidin-1-yl)prop-2-en-1-one] | 60 to 100 | 30 to 60 | < 30 | < 30 | ≥ 1000
C=CC(=O)N1CCC(Nc2cc3c(Nc4ccc(Oc5ccnc(N6C[C@H](OC)[C@H](OC)C6)n5)cc4F)ncnc3cc2OC)CC1 [Compound 260, 1-(4-((4-((4-((2-((3R,4S)-3,4-dimethoxypyrrolidin-1-yl)pyrimidin-4-yl)oxy)-2-fluorophenyl)amino)-7-methoxyquinazolin-6-yl)amino)piperidin-1-yl)prop-2-en-1-one] | 100 to 300 | < 30 | < 30 | < 30 | ≥ 1000
C=CC(=O)N1CCC(Nc2cc3c(Nc4ccc(Oc5ccn(-c6cc(F)c(C)cn6)n5)c(Cl)c4)ncnc3cc2OC)CC1 [Example 17, 1-(4-((4-((3-chloro-4-((1-(4-fluoro-5-methylpyridin-2-yl)-1H-pyrazol-3-yl)oxy)phenyl)amino)-7-methoxyquinazolin-6-yl)amino)piperidin-1-yl)prop-2-en-1-one] | 60 to 100 | 100 to 300 | 600 to 1000 | 600 to 1000 | 100 to 300
C=C(F)C(=O)N1CCC(Nc2cc3c(Nc4ccc(Oc5ccn(-c6cnc(C)c(F)c6)n5)cc4F)ncnc3cc2OC)CC1 [Example 23, 2-fluoro-1-(4-((4-((2-fluoro-4-((1-(5-fluoro-6-methylpyridin-3-yl)-1H-pyrazol-3-yl)oxy)phenyl)amino)-7-methoxyquinazolin-6-yl)amino)piperidin-1-yl)prop-2-en-1-one] | ≥ 1000 | ≥ 1000 | ≥ 1000 | 600 to 1000 | ≥ 1000
CC#CC(=O)N1CCC(Nc2cc3c(Nc4ccc(Oc5ccn(-c6cnc(C)c(F)c6)n5)cc4F)ncnc3cc2OC)CC1 [Example 24, 1-(4-((4-((2-fluoro-4-((1-(5-fluoro-6-methylpyridin-3-yl)-1H-pyrazol-3-yl)oxy)phenyl)amino)-7-methoxyquinazolin-6-yl)amino)piperidin-1-yl)but-2-yn-1-one] | ≥ 1000 | ≥ 1000 | ≥ 1000 | ≥ 1000 | ≥ 1000
C=C(F)C(=O)N1CCC(Nc2cc3c(Nc4ccc(Oc5ccn(-c6ccc(C)nc6)n5)cc4F)ncnc3cc2OC)CC1 [Example 25, 2-fluoro-1-(4-((4-((2-fluoro-4-((1-(6-methylpyridin-3-yl)-1H-pyrazol-3-yl)oxy)phenyl)amino)-7-methoxyquinazolin-6-yl)amino)piperidin-1-yl)prop-2-en-1-one] | ≥ 1000 | ≥ 1000 | ≥ 1000 | ≥ 1000 | ≥ 1000
C=CC(=O)N1CCC(Nc2cc3c(Nc4ccc(Oc5nc(-c6ccnn6C)cs5)cc4F)ncnc3cc2OC)CC1 [Example 26, 1-(4-((4-((2-fluoro-4-((4-(1-methyl-1H-pyrazol-5-yl)thiazol-2-yl)oxy)phenyl)amino)-7-methoxyquinazolin-6-yl)amino)piperidin-1-yl)prop-2-en-1-one] | 60 to 100 | 30 to 60 | 30 to 60 | 30 to 60 | 100 to 300
C=CC(=O)N1CCC(Nc2cc3c(Nc4ccc(Oc5ccnc(-c6ccc(C)nc6)c5)cc4F)ncnc3cc2OC)CC1 [Example 27, 1-(4-((4-((2-fluoro-4-((6′-methyl-[2,3′-bipyridin]-4-yl)oxy)phenyl)amino)-7-methoxyquinazolin-6-yl)amino)piperidin-1-yl)prop-2-en-1-one] | 100 to 300 | 60 to 100 | 30 to 60 | 60 to 100 | ≥ 1000
C=CC(=O)N1CCC(Nc2cc3c(Nc4ccc(Oc5nc(-c6cnc(OCC)nc6)cs5)cc4F)ncnc3cc2OC)CC1 [Example 28, 1-(4-((4-((4-((4-(2-ethoxypyrimidin-5-yl)thiazol-2-yl)oxy)-2-fluorophenyl)amino)-7-methoxyquinazolin-6-yl)amino)piperidin-1-yl)prop-2-en-1-one] | 100 to 300 | 30 to 60 | < 30 | 30 to 60 | 100 to 300
C=CC(=O)N1CCC(Nc2cc3c(Nc4ccc(Oc5ccn(-c6cc(OC)ncn6)n5)cc4F)ncnc3cc2OC)CC1 [Example 30, 1-(4-((4-((2-fluoro-4-((1-(6-methoxypyrimidin-4-yl)-1H-pyrazol-3-yl)oxy)phenyl)amino)-7-methoxyquinazolin-6-yl)amino)piperidin-1-yl)prop-2-en-1-one] | 100 to 300 | 30 to 60 | < 30 | < 30 | 300 to 600
C=CC(=O)N1CCC(Nc2cc3c(Nc4ccc(Oc5nc(-c6cnc(C)nc6)cs5)cc4F)ncnc3cc2OC)CC1 [Example 32, 1-(4-((4-((2-fluoro-4-((4-(2-methylpyrimidin-5-yl)thiazol-2-yl)oxy)phenyl)amino)-7-methoxyquinazolin-6-yl)amino)piperidin-1-yl)prop-2-en-1-one] | 60 to 100 | < 30 | < 30 | < 30 | 100 to 300
C=CC(=O)N1CCC(Nc2cc3c(Nc4ccc(Oc5ccn(-c6cnc(C)cn6)n5)cc4F)ncnc3cc2OC)CC1 [Example 33, 1-(4-((4-((2-fluoro-4-((1-(5-methylpyrazin-2-yl)-1H-pyrazol-3-yl)oxy)phenyl)amino)-7-methoxyquinazolin-6-yl)amino)piperidin-1-yl)prop-2-en-1-one] | 300 to 600 | 100 to 300 | 60 to 100 | 100 to 300 | 100 to 300
C=CC(=O)N1CCC(Nc2cc3c(Nc4ccc(Oc5ccn(-c6cnc(C)c(C)c6)n5)cc4F)ncnc3cc2OC)CC1 [Example 36, 1-(4-((4-((4-((1-(5,6-dimethylpyridin-3-yl)-1H-pyrazol-3-yl)oxy)-2-fluorophenyl)amino)-7-methoxyquinazolin-6-yl)amino)piperidin-1-yl)prop-2-en-1-one] | 60 to 100 | 30 to 60 | 60 to 100 | 60 to 100 | 30 to 60

The remaining lines, values ahead:

GI50 (HCC827 cells) [nM] | GI50 [1] [nM] | GI50 [2] [nM] | GI50 [3] [nM] | GI50 (A431 cells) [nM] | Structure (SMILES)
60 to 100 | 30 to 60 | < 30 | < 30 | ≥ 1000 | C=CC(=O)N1CCC(Nc2cc3c(Nc4ccc(Oc5ccnc(-n6cc(C)cn6)c5)cc4F)ncnc3cc2OC)CC1 [Compound 232, 1-(4-((4-((2-fluoro-4-((2-(4-methyl-1H-pyrazol-1-yl)pyridin-4-yl)oxy)phenyl)amino)-7-methoxyquinazolin-6-yl)amino)piperidin-1-yl)prop-2-en-1-one]
30 to 60 | < 30 | < 30 | < 30 | 300 to 600 | C=CC(=O)N1CCC(Nc2cc3c(Nc4ccc(Oc5ccnc(NC6CCC6)c5)cc4F)ncnc3cc2OC)CC1 [Compound 243, 1-(4-((4-((4-((2-(cyclobutylamino)pyridin-4-yl)oxy)-2-fluorophenyl)amino)-7-methoxyquinazolin-6-yl)amino)piperidin-1-yl)prop-2-en-1-one]
< 30 | < 30 | < 30 | < 30 | 100 to 300 | C=CC(=O)N1CCC(Nc2cc3c(Nc4ccc(Oc5ccn(-c6ccc(C)nc6)n5)cc4F)ncnc3cc2OCC)CC1 [Example 18, 1-(4-((7-ethoxy-4-((2-fluoro-4-((1-(6-methylpyridin-3-yl)-1H-pyrazol-3-yl)oxy)phenyl)amino)quinazolin-6-yl)amino)piperidin-1-yl)prop-2-en-1-one]
< 30 | 30 to 60 | 30 to 60 | 60 to 100 | 100 to 300 | C=CC(=O)N1CCC(Nc2cc3c(Nc4cc(Cl)c(Oc5ccn(-c6cnc(C)c(F)c6)n5)cc4F)ncnc3cc2OC)CC1 [Example 19, 1-(4-((4-((5-chloro-2-fluoro-4-((1-(5-fluoro-6-methylpyridin-3-yl)-1H-pyrazol-3-yl)oxy)phenyl)amino)-7-methoxyquinazolin-6-yl)amino)piperidin-1-yl)prop-2-en-1-one]
30 to 60 | 100 to 300 | 60 to 100 | 100 to 300 | 100 to 300 | C=CC(=O)N1CCC(Nc2cc3c(Nc4ccc(Oc5ccn(-c6cnc(C)c(F)c6)n5)c(Cl)c4)ncnc3cc2OC)CC1 [Example 20, 1-(4-((4-((3-chloro-4-((1-(5-fluoro-6-methylpyridin-3-yl)-1H-pyrazol-3-yl)oxy)phenyl)amino)-7-methoxyquinazolin-6-yl)amino)piperidin-1-yl)prop-2-en-1-one]
< 30 | < 30 | < 30 | < 30 | ≥ 1000 | C=CC(=O)N1CCC(Nc2cc3c(Nc4ccc(Oc5ccn(-c6ccc(C)nn6)n5)cc4F)ncnc3cc2OC)CC1 [Example 29, 1-(4-((4-((2-fluoro-4-((1-(6-methylpyridazin-3-yl)-1H-pyrazol-3-yl)oxy)phenyl)amino)-7-methoxyquinazolin-6-yl)amino)piperidin-1-yl)prop-2-en-1-one]
